# Data reported in ChEMBL document CHEMBL4725295, “Synthesis and matched molecular pair analysis of covalent reversible inhibitors of the cysteine protease CPB” (Bioorg Med Chem Lett, 2020).
# Key:
# [1] = Covalent reversible inhibition of Leishmania cysteine protease B using Z-Phe-Arg-7-amido-4-methylcoumarin as substrate incubated for 2 mins followed by substrate addition by fluorescence assay
# Leishmania = assay: Covalent reversible inhibition of Leishmania cysteine protease B using Z-Phe-Arg-7-amido-4-methylcoumarin as substrate incubated for 2 mins followed by substrate addition by fluorescence assay relative to control; set-up: concentration or dose not given beside the values
# Cathepsin B [2] = target: T1, Cathepsin B (Homo sapiens, UniProt P07858); assay: Inhibition of human cathepsin B
# Cathepsin B [3] = target: T1, Cathepsin B; assay: Inhibition of human cathepsin B relative to control
Ki [1] [µM],pKi [1],inhibition (Leishmania) [%],Ki (Cathepsin B [2]) [µM],inhibition (INH) (Cathepsin B [3]) [%],Compound
> 10,< 5,88,,,Cc1ccc([C@@H](N[C@H](Cc2ccccc2)C(=O)NC2(C#N)CC2)C(F)(F)F)cc1
7.65,5.11,,,,N#CC1(NC(=O)[C@@H](Cc2ccccc2)N[C@H](c2ccccc2)C(F)(F)F)CC1
1.7,5.77,,> 10,74.5,N#CC1(NC(=O)[C@H](Cc2ccccc2)N[C@@H](c2ccccc2)C(F)(F)F)CC1
0.795,6.1,,> 10,> 95,N#CC1(NC(=O)[C@@H](Cc2ccccc2)N[C@H](c2ccc(Br)cc2)C(F)(F)F)CC1
0.595,6.23,,,,N#CC1(NC(=O)[C@H](Cc2ccccc2)N[C@H](c2ccc(Br)cc2)C(F)(F)F)CC1
1.5,5.8,,> 10,92,Cc1ccc([C@@H](N[C@@H](Cc2ccccc2)C(=O)NC2(C#N)CC2)C(F)(F)F)cc1
> 10,< 5,70,,,COc1ccc([C@@H](N[C@@H](Cc2ccccc2)C(=O)NC2(C#N)CC2)C(F)(F)F)cc1
3.23,5.5,,,,COc1ccc([C@H](N[C@@H](Cc2ccccc2)C(=O)NC2(C#N)CC2)C(F)(F)F)cc1
> 10,< 5,95,,,COc1ccc([C@@H](N[C@H](Cc2ccccc2)C(=O)NC2(C#N)CC2)C(F)(F)F)cc1
> 10,< 5,86,,,Cc1ccc([C@H](N[C@H](Cc2ccccc2)C(=O)NC2(C#N)CC2)C(F)(F)F)cc1
> 10,< 5,95,,,COc1ccc([C@H](N[C@H](Cc2ccccc2)C(=O)NC2(C#N)CC2)C(F)(F)F)cc1
0.151,6.82,,> 10,> 95,N#CC1(NC(=O)[C@H](Cc2ccccc2)N[C@@H](c2ccc(Br)cc2)C(F)(F)F)CC1
> 10,< 5,,,,N#CC1(NC(=O)[C@@H](Cc2ccccc2)N[C@@H](c2ccc(Br)cc2)C(F)(F)F)CC1
4.4,5.37,,,,N#CC1(NC(=O)[C@@H](Cc2ccccc2)N[C@@H](c2ccccc2)C(F)(F)F)CC1
1.41,5.85,,,,N#CC1(NC(=O)[C@H](Cc2ccccc2)N[C@H](c2ccccc2)C(F)(F)F)CC1
4.07,5.4,,,,Cc1ccc([C@H](N[C@@H](Cc2ccccc2)C(=O)NC2(C#N)CC2)C(F)(F)F)cc1
